Test results from US20260007680A1, “Compounds and Their Use as PDE4 Activators” (Mironid Limited, priority 2022, published 2026).

The molecules below were run on m-IMCD3 cells (assay: Inhibition of PGE2-stimulated in vitro cyst formation in 3D culture of m-IMCD3 cells (Experiment 4)). Details: Mus musculus, mIMCD3, 144 h, 10 μM test compound, mean cyst area compared to 100% for (DMSO + PGE2) and 0% for DMSO control, read-out: % Cyst area* after incubation with 10 μM test compound.
Assay type: cell-based, mouse
Description: HEK 293 and MDCK cells (Public Health England, Cell Culture Collections) were maintained in Dulbecco's Modified Eagle's Medium (DMEM) supplemented with 10% (v/v) fetal bovine serum (FBS) (Seralab), 2 mM L-glutamine and 100 U/ml penicillin streptomycin cocktail (ThermoFisher); termed complete media. Clonal HEK 293 cell lines were maintained in complete media supplemented with 0.6 mg/mL G418 (Enzo Life Sciences). Mouse inner medullary collecting duct (m-IMCD3) cells [American Type Culture Collection (ATCC)] were maintained in media consisting of DMEM/Hams F-12 50/50 Mix (DMEM F12; Corning) supplemented with penicillin streptomycin cocktail (100 U/ml) and FBS (10% v/v) (DMEM F12-10% FBS).
The mouse Inner Medullary Collecting Duct cell line (m-IMCD3) spontaneously forms cystic spheroids in 3D culture with a Type 1 collagen/Matrigel extracellular matrix. This process can be stimulated with agents which raise intracellular cAMP and is used as an in vitro model for the formation of cystic structures in the kidneys of patients with ADPKD.
Rat Collagen I (Fisher Scientific) is prepared on ice by neutralising with 1 M NaOH and diluting with a 2×volume of DMEM/F12+10% FBS. This is mixed 1:1.1 with ice cold Matrigel (Corning) for coating plates (coating mix), and 1:0.93 with Matrigel for cell plating (plating mix).
The assay is conducted in the wells of a 96-well plate culture dish using a total volume of 130 μL of collagen/Matrigel/DMEM F12-10% FBS suspension in growth media for each matrix plug per individual well. Initially, 30 μL of collagen/Matrigel/DMEM F12-10% FBS (coating mix) is added into the well of a 96 well plate and the collagen is set to a gel by incubating at 37° C. for at least 15 minutes. A second layer of 100 μL collagen/Matrigel suspension (plating mix) containing m-IMCD3 cells (2.75×10^6 m-IMCD3 cells per 96-well plate) is layered over the coating mix and the collagen/Matrigel/cell mix again set to a gel by incubating at 37° C. Cell cultures are maintained at 37° C. in an atmosphere of 5% CO2, 95% air.
Between 18 and 24 h after plating, test compound(s) as DMSO stock solutions [0.1% (v/v) final DMSO concentration] and PGE2 (100 nM final concentration) in DMEM F12-10% FBS are added in quadruplicate wells per condition. Media, together with the test compound and PGE2 are replenished after 2 or 3 days. After 6 days of culture z stack images of the wells are captured using the Nikon Eclipse Ti2-E microscope. Nikon General Analysis software is used to measure the following parameters in each well: the mean cyst area, the number of cysts, and the total cyst area.
PDE4 long form activators inhibited in vitro cyst formation in m-IMCD3 cells. Data are shown in FIG. 2 and Table 4 as mean cyst area (%), compared to 100% for (DMSO+PGE2) and 0% for DMSO control.
`O=C(NC1CCC(F)(F)CC1)c1ccc2nc(N3C4CCC3CNC4)sc2n1` [Example 116, 2-(3,8-diazabicyclo[3.2.1]octan-8-yl)-N-(4,4-difluorocyclohexyl)thiazolo[5,4-b]pyridine-5-carboxamide] showed an activity at 10 µM of -1%. `Cc1ncccc1-c1nc2cc(C(=O)N[C@H]3CCOc4ccccc43)ccc2[nH]1` [Example 3, (S)—N-(chroman-4-yl)-2-(2-methylpyridin-3-yl)-1H-benzo[d]imidazole-5-carboxamide] was tested, and the activity at 10 µM was 20%. With `O=C(N[C@H]1CCOc2ccccc21)c1ccc2nc(N3CCNCC3)nn2c1` [Example 40, (S)—N-(chroman-4-yl)-2-(piperazin-1-yl)-[1,2,4]triazolo[1,5-a]pyridine-6-carboxamide] the activity at 10 µM was 11%. For `CCN1CCN(c2nc3ccc(C(=O)N[C@H]4CCOc5ccccc54)cn3n2)CC1` [Example 45, (S)—N-(chroman-4-yl)-2-(4-ethylpiperazin-1-yl)-[1,2,4]triazolo[1,5-a]pyridine-6-carboxamide], the activity at 10 µM was 15%. `CCN1CCN(c2nc3cc(C(=O)N[C@H]4CCOc5ccccc54)ccn3n2)CC1` [Example 60, (S)—N-(chroman-4-yl)-2-(4-ethylpiperazin-1-yl)-[1,2,4]triazolo[1,5-a]pyridine-7-carboxamide] showed an activity at 10 µM of 18%. In the case of `CN1CCN(c2cc3ncc(C(=O)NC4CCCCC4)cn3n2)CC1` [Example 77, N-cyclohexyl-2-(4-methylpiperazin-1-yl)pyrazolo[1,5-a]pyrimidine-6-carboxamide], the activity at 10 µM is reported as 0%. In the case of `Cn1c(-c2cccnc2)nc2cc(C(=O)N[C@H]3CCOc4ccccc43)ccc21` [Example 24, (S)—N-(chroman-4-yl)-1-methyl-2-(pyridin-3-yl)-1H-benzo[d]imidazole-5-carboxamide], the activity at 10 µM is reported as 21%. With `CN1CCN(c2cc3ncc(C(=O)N[C@H]4CCOc5ccccc54)cn3n2)CC1` [Example 69, (S)—N-(chroman-4-yl)-2-(4-methylpiperazin-1-yl)pyrazolo[1,5-a]pyrimidine-6-carboxamide] the activity at 10 µM was 7%. In the case of `O=C(N[C@H]1CCOc2ccccc21)c1ccc2oc(N3CCN(CCO)CC3)nc2c1` [Example 106, (S)—N-(chroman-4-yl)-2-(4-(2-hydroxyethyl)piperazin-1-yl)benzo[d]oxazole-5-carboxamide], the activity at 10 µM is reported as -3%. Molecule `CN1CCC(c2nc3cc(C(=O)NC4CCCC4)ccc3o2)CC1` [Example 98, N-cyclopentyl-2-(1-methylpiperidin-4-yl)benzo[d]oxazole-5-carboxamide] has an activity at 10 µM of -3%. Molecule `Cc1cncc(-c2nc3cc(C(=O)N[C@H]4CCOc5ccccc54)ccc3n2C)c1` [Example 23, (S)—N-(chroman-4-yl)-1-methyl-2-(5-methylpyridin-3-yl)-1H-benzo[d]imidazole-5-carboxamide] has an activity at 10 µM of 12%. In the case of `O=C(N[C@H]1CCc2ccccc21)c1ccn2nc(N3CCNCC3)nc2c1` [Example 62, (S)—N-(2,3-dihydro-1H-inden-1-yl)-2-(piperazin-1-yl)-[1,2,4]triazolo[1,5-a]pyridine-7-carboxamide], the activity at 10 µM is reported as 0%. Molecule `Cc1ccncc1-c1nc2cc(C(=O)N[C@H]3CCOc4ccccc43)ccc2[nH]1` [Example 1, (S)—N-(chroman-4-yl)-2-(4-methylpyridin-3-yl)-1H-benzo[d]imidazole-5-carboxamide] has an activity at 10 µM of 26%. Work on `O=C(NC1CCCC1)c1ccc2nc(N3C4CCC3CNC4)cn2c1` [Example 67, 2-(3,8-diazabicyclo[3.2.1]octan-8-yl)-N-cyclopentylimidazo[1,2-a]pyridine-6-carboxamide] yielded an activity at 10 µM of 27%. `CN1CCN(c2nc3cc(C(=O)N[C@H]4CCc5ccccc54)ccn3n2)CC1` [Example 64, (S)—N-(2,3-dihydro-1H-inden-1-yl)-2-(4-methylpiperazin-1-yl)-[1,2,4]triazolo[1,5-a]pyridine-7-carboxamide] was tested, and the activity at 10 µM was 1%. In the case of `CN1CC2CCC(C1)N2c1cc2ncc(C(=O)NC3CCCC3)cn2n1` [Example 81, N-cyclopentyl-2-(3-methyl-3,8-diazabicyclo[3.2.1]octan-8-yl)pvrazolo[1,5-a]pyrimidine-6-carboxamide], the activity at 10 µM is reported as -3%.
